# pIC50: −log10 of the molar value.
# Tested on: K-562 leukemia growth, % test/control
# Assay: Anticancer human tumor K-562 cell line growth inhibition;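 also: spheroids exposed to compounds for 7 days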;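 as to viability, T/C: 100% = DMSO vehicle wells and lower values mean fewer viable cells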
# Conditions: spheroids with HUVEC and MSC; for pIC50: curve of first compound; for viability, T/C: stronger effect = lower value
# Outline: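 Drug combinations with the LSD1 inhibitor iadademstat tested on tumor cells co-cultured as spheroids with endothelial cells and mesenchymal stem cells. Concentrations descended in half-log increments from clinical Cmax or 10 microM.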
smiles,measurement,setting,value
O=C(C=Cn1cnc(-c2cc(C(F)(F)F)cc(C(F)(F)F)c2)n1)NNc1cnccn1 + NC1CC1c1ccc(-c2cccc(O)c2)cc1,pIC50,second compound 0.1 µM,6.94
same,pIC50,second compound 0.316 µM,7.12
same,pIC50,second compound 1 µM,7.17
same,pIC50,second compound 3.16 µM,7.18
same,pIC50,second compound 10 µM,7.30
same,"viability, T/C","second compound 0.1 µM, first compound 0.00316 µM",106%
same,"viability, T/C","second compound 0.1 µM, first compound 0.01 µM",103%
same,"viability, T/C","second compound 0.1 µM, first compound 0.0316 µM",93.5%
same,"viability, T/C","second compound 0.1 µM, first compound 0.1 µM",56.2%
same,"viability, T/C","second compound 0.1 µM, first compound 0.316 µM",9.94%
same,"viability, T/C","second compound 0.1 µM, first compound 1 µM",1.19%
same,"viability, T/C","second compound 0.316 µM, first compound 0.00316 µM",106%
same,"viability, T/C","second compound 0.316 µM, first compound 0.01 µM",103%
same,"viability, T/C","second compound 0.316 µM, first compound 0.0316 µM",83.1%
same,"viability, T/C","second compound 0.316 µM, first compound 0.1 µM",40.1%
same,"viability, T/C","second compound 0.316 µM, first compound 0.316 µM",9.06%
same,"viability, T/C","second compound 0.316 µM, first compound 1 µM",1.23%
same,"viability, T/C","second compound 1 µM, first compound 0.00316 µM",102%
same,"viability, T/C","second compound 1 µM, first compound 0.01 µM",96.4%
same,"viability, T/C","second compound 1 µM, first compound 0.0316 µM",80.7%
same,"viability, T/C","second compound 1 µM, first compound 0.1 µM",34%
same,"viability, T/C","second compound 1 µM, first compound 0.316 µM",8.67%
same,"viability, T/C","second compound 1 µM, first compound 1 µM",1.78%
same,"viability, T/C","second compound 3.16 µM, first compound 0.00316 µM",97%
same,"viability, T/C","second compound 3.16 µM, first compound 0.01 µM",94.9%
same,"viability, T/C","second compound 3.16 µM, first compound 0.0316 µM",73.4%
same,"viability, T/C","second compound 3.16 µM, first compound 0.1 µM",37.6%
same,"viability, T/C","second compound 3.16 µM, first compound 0.316 µM",8.04%
same,"viability, T/C","second compound 3.16 µM, first compound 1 µM",1.27%
same,"viability, T/C","second compound 10 µM, first compound 0.00316 µM",91.4%
same,"viability, T/C","second compound 10 µM, first compound 0.01 µM",91.3%
same,"viability, T/C","second compound 10 µM, first compound 0.0316 µM",59.8%
same,"viability, T/C","second compound 10 µM, first compound 0.1 µM",32.7%
same,"viability, T/C","second compound 10 µM, first compound 0.316 µM",6.57%
same,"viability, T/C","second compound 10 µM, first compound 1 µM",2.98%

# Source: PubChem BioAssay AID1918948 (Molecular Pharmacology Branch, DTP, NCI, 2023)
